Laboratory results from patent publication US12484574B2, “Agent for promoting undifferentiation and cryoprotective agent using aprotic zwitterion” (JAPAN SCIENCE AND TECHNOLOGY AGENCY, priority 2019, dated 2025).
“Also recorded” adds a separate entry of the source.

How the values were obtained:
human fibroblasts = assay: Influence on cell cycle (Click-iT Plus EdU cell proliferation assay); format: cell-based; conditions: 2% addition; compared with no addition; FIG. 11
Method: The cells used were human fibroblasts.
The test groups were 1% addition groups and 2% addition groups of DMSO and HLS (OE2imC3C) vs. a control.
Cell cycle analysis was conducted using Click-iT® Plus EdU cell proliferation assay (Thermo Fisher Scientific Inc.) containing 5-ethynyl-2′-deoxyuridine (EdU) according to the manufacturer's protocol. The cells were incubated in 10 μM EdU for 1 hour, treated with trypsin, then fixed in 4% PFA, and labeled with Alexa Fluor 647 picolyl azide. The cells were stained with 4′,6-diamidino-2-phenylindole (DAPI) and analyzed with BD FACSAria™ III (BD Biosciences).

[1] = test system: Mouse fibroblasts C57BL/6-GFP; assay: Cell freezing, rapid freezing method, viable cell count (Example 4); format: cell-based
Method: (§1) Human ES cell and human iPS cell cryopreservation solution DAP213 (manufactured by ReproCELL Inc.) • 75% by weight of OE2imC3C/H2O • 50% by weight of OE2imC3C/H2O • 25% by weight of OE2imC3C/H2O
(§2) The cells to be frozen (two types) were centrifugally recovered by trypsin treatment and diluted with Dulbecco's modified Eagle medium (DMEM), and each cell concentration was measured. The types and cell concentrations of the cells are as follows. • Human skin fibroblasts 8.2×10^5 cells/100 μl (N=3) • Mouse fibroblasts C57BL/6-GFP 1.2×10^6 cells/100 μl (N=3)
(§3) Subsequently, the cells of each type were dispensed at 1 ml/tube to 1.5 ml tubes, centrifuged, suspended in 100 μl each of the cryopreservation solutions described above, and immediately thereafter rapidly frozen in liquid nitrogen within 10 to 15 seconds. Then, the cells were preserved for 3 days in a liquid nitrogen tank.
(§4) The cryopreservation vial was rapidly thawed with 1 ml of a medium, and a supernatant was removed by centrifugation. Subsequently, the cells obtained by centrifugation were resuspended in a medium, followed by the measurement of a viable cell count. Then, culture was started in a 6-well plate.
(§5) 24 hours after the start of culture, the viable cell count was measured.

Human skin fibroblasts = assay: as above; format: cell-based
Method: as §1, §2, §3, §4, §5

[2] = Glass transition temperature and heat quantity by differential scanning calorimetry (DSC); format: physicochemical; conditions: 10 wt % in purified water, cooling −1° C./min, heating 5° C./min
Method: The glass transition temperature and the heat quantity were determined by differential scanning calorimetry (DSC). The measurement was performed with a cooling rate set to −1° C./min an d a heating rate set to 5° C./min.

Human iPS cells = assay: Undifferentiation-specific gene expression analysis (Nanog, Oct3/4 quantitative PCR); format: cell-based; conditions: no addition defined as 1
Method: Human iPS cells (RIKEN BRC) were reconstituted on SNL feeder cells (manufactured by Cell Biolabs, Inc.) and cultured in a CO2 incubator (5% CO2, 37° C., wet). On the next day, medium replacement was performed. The medium was replaced with a fresh one every day until 80% confluency. The cells that reached 80% confluency were recovered and subcultured. The subculture method for the cells is as follows: the cells were washed with DPBS(−) (no calcium, no magnesium, Thermo Fisher Scientific Inc.) and then treated with a CTK solution ((0.25% trypsin+1 mg/ml collagenase IV+1 mM CaCl2+20% KSR in DPBS (−))). The CTK solution was removed, and the cells were washed with DPBS(−) twice. […]
Subsequently, the expression levels of undifferentiation-specific genes Nanog and Oct3/4 were measured. […] The expression levels of the undifferentiation markers were quantified by the following method. […]
cDNA was synthesized from the FastLane lysate (RNA) through RT-PCR reaction using QuantiTect Reverse Transcription Kit (manufactured by Qiagen N.V.).
The quantitative PCR of OCT3/4 and NANOG was carried out under conditions of 95° C. for 30 seconds; (95° C. for 5 seconds; 60° C. for 30 seconds)×40; dissociation using SYBR Premix Ex Taq II (Tli RNaseH Plus) (manufactured by Takara Bio Inc.). […]

COCCOCCn1cc[n+](CCCC(=O)[O-])c1 [OE2imC3C]
influence on cell cycle (G0/G1 phase, S phase) (human fibroblasts): little influence
viable cell count after thawing ([1]; 75, 50, 25% by weight in H2O, rapidly frozen in liquid nitrogen, preserved 3 days, FIG. 8): comparable to that of the commercially available cryopreservation solution DAP213; also recorded: a lower concentration (25% by weight) offered a higher survival rate of the cells
viable cell count 24 hours after the start of culture ([1]; rapid freezing method, FIG. 10): reached a high value, albeit being inferior to the commercially available cryopreservation solution DAP213
viable cell count after thawing (Human skin fibroblasts; 75, 50, 25% by weight in H2O, rapidly frozen in liquid nitrogen, preserved 3 days, FIG. 7): comparable to that of the commercially available cryopreservation solution DAP213; also recorded: a lower concentration (25% by weight) offered a higher survival rate of the cells
viable cell count 24 hours after the start of culture (Human skin fibroblasts; rapid freezing method, FIG. 9): reached a high value, albeit being inferior to the commercially available cryopreservation solution DAP213
Heat quantity [2]: -198.7 J/g
Tg [2]: −85.69 °C
relative expression levels of Nanog and Oct3/4 (Human iPS cells; with SNL feeder cells, 0.4, 1.0 and 2.0% (w/v) in human iPS cell medium, FIG. 1): amplify the undifferentiation markers
relative expression levels of Nanog and Oct3/4 (Human iPS cells; without feeder cells, 1.0 and 2.0% (w/v) in SNL-conditioned medium, FIG. 2): amplify the undifferentiation markers
